From PMC9706020, “Isovitexin Is a Direct Inhibitor of Staphylococcus aureus Coagulase” (Journal of Microbiology and Biotechnology, 2021)

Tests used:
[1] = target: T1, S. aureus coagulase (Coa); 6×His-Coa; WT-Coa (Staphylococcus aureus, UniProt Q2G1D3); test: intrinsic fluorescence quenching; assay type: binding
T1 construct: gene SAOUHSC_00192; 6×His-tagged Coa from pET15b-Coa, expressed in E. coli BL21(DE3), Ni-NTA purified

[2] = target: T2, S. aureus coagulase (Coa); 6×His-Coa; WT-Coa (Staphylococcus aureus, UniProt Q2G1D3, V191A); test: biochemical
T2 construct: gene SAOUHSC_00192
From the text: (§1) intrinsic fluorescence quenching on S. aureus coagulase (Coa); 6×His-Coa; WT-Coa

[3] = target: T3, S. aureus coagulase (Coa); 6×His-Coa; WT-Coa (Staphylococcus aureus, UniProt Q2G1D3, Y188A); test: biochemical
T3 construct: gene SAOUHSC_00192
From the text: as §1

[4] = target: T4, S. aureus coagulase (Coa); 6×His-Coa; WT-Coa (Staphylococcus aureus, UniProt Q2G1D3, P268A); test: biochemical
T4 construct: gene SAOUHSC_00192
From the text: as §1

[5] = target: T5, S. aureus coagulase (Coa); 6×His-Coa; WT-Coa (Staphylococcus aureus, UniProt Q2G1D3, N267A); test: biochemical
T5 construct: gene SAOUHSC_00192
From the text: as §1

[6] = target: T1, S. aureus coagulase (Coa); 6×His-Coa; WT-Coa; test: plate coagulation assay (agarose, fibrinogen, rabbit plasma); assay type: biochemical; conditions: 2.5 mg/ml Coa; 37 °C overnight; rabbit plasma as prothrombin source

SMILES: O=c1cc(-c2ccc(O)cc2)oc2cc(O)c([C@@H]3O[C@H](CO)[C@@H](O)[C@H](O)[C@H]3O)c(O)c12 [isovitexin, apigenin-6-C-β-glucopyranoside]
- Kd [1]: 10 µM
- Kd [2]: 23 µM
- Kd [3]: 11.4 µM
- Kd [4]: 19.4 µM
- Kd [5]: 12.4 µM
- diameter of coagulation zone, % of control, at 128 μg/ml [6]: 47.50%
